The text below walks through data of US7638526B2, “Azetidine derivatives useful in treating pain, diabetes and disorders of lipid metabolism” (Schering Corporation, priority 2006, dated 2009).

Type in all cases: cell-based
The target in one assay is T1, human GPR119 (Homo sapiens, UniProt Q8TDV5).
T1 construct: expressed in transfected cells
T1 sequence (Q8TDV5 1-335): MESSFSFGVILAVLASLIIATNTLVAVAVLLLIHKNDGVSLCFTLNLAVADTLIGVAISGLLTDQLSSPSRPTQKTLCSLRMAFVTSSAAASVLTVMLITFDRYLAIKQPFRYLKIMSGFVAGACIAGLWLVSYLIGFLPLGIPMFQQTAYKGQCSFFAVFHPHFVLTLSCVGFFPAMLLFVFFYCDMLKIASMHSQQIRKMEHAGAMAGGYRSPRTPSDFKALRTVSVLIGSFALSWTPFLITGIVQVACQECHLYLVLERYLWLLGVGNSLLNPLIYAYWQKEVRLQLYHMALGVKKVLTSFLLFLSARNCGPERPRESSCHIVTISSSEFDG
Briefly: GPR119 screening assay (LANCE cAMP, HEK 293 cells stably transfected with human GPR119). The note with it: HEK 293 cells stably transfected with human GPR119, LANCE cAMP; read-out: GPR 119 cAMP EC50. For orientation: TR-FRET usually uses a lanthanide donor and a delayed reading to cut background.

In assay [1] the target is T2, human Cav3.2 (Homo sapiens, UniProt O95180).
T2 construct: expressed in transfected cells
T2 sequence (O95180 whole entry): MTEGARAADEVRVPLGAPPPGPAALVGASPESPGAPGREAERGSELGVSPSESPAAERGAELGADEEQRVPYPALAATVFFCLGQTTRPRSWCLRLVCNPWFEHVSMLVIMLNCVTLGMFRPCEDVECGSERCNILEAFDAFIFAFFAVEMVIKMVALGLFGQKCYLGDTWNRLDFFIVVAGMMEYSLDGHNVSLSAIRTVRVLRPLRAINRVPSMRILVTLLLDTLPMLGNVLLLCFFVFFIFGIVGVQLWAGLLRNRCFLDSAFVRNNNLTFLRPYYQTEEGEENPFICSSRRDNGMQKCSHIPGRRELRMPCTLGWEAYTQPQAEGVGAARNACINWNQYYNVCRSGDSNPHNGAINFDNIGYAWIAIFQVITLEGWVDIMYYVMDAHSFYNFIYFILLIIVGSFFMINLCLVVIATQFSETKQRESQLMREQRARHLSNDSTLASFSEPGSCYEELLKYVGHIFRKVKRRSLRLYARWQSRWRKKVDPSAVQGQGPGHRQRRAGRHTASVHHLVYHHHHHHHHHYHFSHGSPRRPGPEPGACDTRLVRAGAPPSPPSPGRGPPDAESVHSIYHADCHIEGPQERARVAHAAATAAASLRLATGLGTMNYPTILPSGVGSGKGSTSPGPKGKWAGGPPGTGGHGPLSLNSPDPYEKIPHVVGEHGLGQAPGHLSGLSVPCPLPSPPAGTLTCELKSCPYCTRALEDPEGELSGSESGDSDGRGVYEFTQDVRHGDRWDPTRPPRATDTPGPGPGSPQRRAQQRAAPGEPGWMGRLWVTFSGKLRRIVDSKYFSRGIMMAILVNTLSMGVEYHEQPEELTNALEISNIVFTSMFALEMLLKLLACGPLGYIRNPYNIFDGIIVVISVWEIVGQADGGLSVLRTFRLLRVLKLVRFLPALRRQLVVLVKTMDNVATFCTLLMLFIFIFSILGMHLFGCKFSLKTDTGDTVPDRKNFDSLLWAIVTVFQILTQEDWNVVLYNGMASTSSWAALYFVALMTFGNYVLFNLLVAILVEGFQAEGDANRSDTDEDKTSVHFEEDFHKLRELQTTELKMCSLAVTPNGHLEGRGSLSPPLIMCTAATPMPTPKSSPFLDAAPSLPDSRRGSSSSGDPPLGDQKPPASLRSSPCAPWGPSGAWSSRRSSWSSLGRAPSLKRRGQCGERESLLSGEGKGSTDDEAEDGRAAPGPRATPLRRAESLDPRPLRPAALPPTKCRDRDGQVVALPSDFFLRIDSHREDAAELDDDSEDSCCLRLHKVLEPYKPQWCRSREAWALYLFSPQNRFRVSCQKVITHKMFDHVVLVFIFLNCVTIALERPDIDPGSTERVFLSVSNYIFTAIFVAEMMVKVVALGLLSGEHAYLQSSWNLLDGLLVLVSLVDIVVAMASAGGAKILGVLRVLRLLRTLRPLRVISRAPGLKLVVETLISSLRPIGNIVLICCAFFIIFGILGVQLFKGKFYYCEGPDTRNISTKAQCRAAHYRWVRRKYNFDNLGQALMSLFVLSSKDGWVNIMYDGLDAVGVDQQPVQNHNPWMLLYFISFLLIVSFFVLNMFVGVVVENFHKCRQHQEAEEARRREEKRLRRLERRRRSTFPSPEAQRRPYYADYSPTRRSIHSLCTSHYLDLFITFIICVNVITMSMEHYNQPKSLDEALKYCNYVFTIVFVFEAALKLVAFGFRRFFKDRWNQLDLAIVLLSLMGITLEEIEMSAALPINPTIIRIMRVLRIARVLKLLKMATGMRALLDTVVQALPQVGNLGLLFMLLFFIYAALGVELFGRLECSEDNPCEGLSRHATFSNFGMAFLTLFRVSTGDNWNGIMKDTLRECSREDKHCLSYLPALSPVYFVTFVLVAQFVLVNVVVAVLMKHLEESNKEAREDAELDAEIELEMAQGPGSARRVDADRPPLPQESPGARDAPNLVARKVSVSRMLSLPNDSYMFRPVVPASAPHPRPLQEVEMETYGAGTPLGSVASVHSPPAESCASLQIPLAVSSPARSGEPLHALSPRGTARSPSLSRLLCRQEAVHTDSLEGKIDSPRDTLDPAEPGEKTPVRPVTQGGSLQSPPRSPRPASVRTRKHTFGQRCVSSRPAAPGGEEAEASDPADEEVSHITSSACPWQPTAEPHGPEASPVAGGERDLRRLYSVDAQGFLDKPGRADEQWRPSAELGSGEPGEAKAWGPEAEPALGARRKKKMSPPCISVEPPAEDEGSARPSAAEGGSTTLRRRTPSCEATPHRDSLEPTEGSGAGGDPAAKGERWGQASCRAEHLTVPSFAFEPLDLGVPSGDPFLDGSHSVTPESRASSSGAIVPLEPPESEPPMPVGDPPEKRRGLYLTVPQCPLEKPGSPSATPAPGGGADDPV
Briefly: Ionworks screen for hCaV3.2 (IonWorks HT voltage clamp, T-type calcium current). The note with it: IonWorks (IW) screen. An excerpt: (§1) Functional evaluation of voltage-gated ion channels was used to determine potency and/or single concentration efficacy of proprietary compounds. Two different methodologies were used to measure ion currents: the IonWorks HT (Molecular Devices, Sunnyvale, Calif.) a moderate throughput voltage clamp screening platform that utilizes 96-well compound plates and conventional whole cell patch clamp for lower throughput, higher fidelity determinations.
HEK cells were transiently transfected and then selected for stable heterologous expression of different channel proteins of interest. Calcium channel cell lines expressed a resting potassium current, human Kir2.1, and the pore forming α-subunit of voltage-gated calcium channels. In the case of Cav2.1 cells the auxiliary subunit, β2a, was also expressed. Calcium channel lines that were used to generate the data in this document expressed either human Cav3.2, rat Cav3.2 or human Cav2.1. The human heart sodium channel, hNav1.5, was stably expressed in CHO cells. These cells were licensed from the University of Pennsylvania.
Cell lines were grown at 37° C. in humidified incubators, equilibrated with 95% air/5% CO2. CHO cells were grown in Ham's F-12 medium. HEK cells were grown in DMEM. All media were supplemented with 10% heat-inactivated fetal bovine serum, penicillin, streptomycin and appropriate selection antibiotics (zeocin, geneticin and/or hygromycin). Cells were passaged when 80% confluent or less.
Ionworks Screen for hCaV3.2
The extracellular buffer for experiments using this instrument contained the following (mM) (NaCl 125, HEPES 10, KCl 5.4, CaCl2 1.8, MgCl2 1.8, 0.2 BaCl2 pH 7.35). The IonWorks uses amphotericin to gain electrical access to the cell interior. The internal solution contained (mM concentrations): 130 K-gluconate, 20 KCl, 5 HEPES-KOH (pH 7.25), 2 CaC12, 1 MgCl2. Amphotericin added at 5 mg in 65 ml when present (in 650 μl DMSO). All internal and external solutions for this experiment contain 1% DMSO. Cells were acutely trypsinized from a T-75 flask and resuspended in extracellular buffer at a density of 2×10^5 cells/ml.
Experiments were performed at room temperature, Transmembrane potential was held at −100 mV for 5 seconds prior to running the voltage protocol. During this time leak currents were measured during a step to −110 mV (200 milliseconds). T-type calcium currents were activated with a 250 millisecond step to −20 mV. This depolarization step was repeated for a total of 10 pulses with an interpulse interval of 1 second. Data were excluded if the following acceptance criteria were not met: total resistance for the pre-compound scan >65 MΩ, pre-compound current >250 pA, post compound total resistance >50 MΩ.
T-type currents were measured as the peak inward current minus the current at the end of the 250 msec step to −20 mV. After the recoding configuration was established there was a pre-compound measurement of current amplitude Compound was added as a 3× solution containing 1% DMSO. After incubation with compound for 10 minutes currents were measured again. The current amplitude after compound addition was divided by the pre-compound current for pulse 10 to determine the traction of current remaining after compound addition. For each compound, 8-point concentration-effect relationships were measured with ½ log serial dilutions.
A general note: The patch-clamp technique gives a direct electrical read-out from membranes.

Assay [2] addresses T2, human Cav3.2. Briefly: Conventional whole cell patch clamp, hCav3.2 current. To be noted: values marked * in Table 10; voltage clamp assay.
Excerpt: as §1
HEK cells were transiently transfected and then selected for stable heterologous expression of different channel proteins of interest. Calcium channel cell lines expressed a resting potassium current, human Kir2.1, and the pore forming α-subunit of voltage-gated calcium channels. In the case of Cav2.1 cells the auxiliary subunit, β2a, was also expressed. […]
The holding potential was −100 mV for all protocols. […] Cav3.2 currents were measured as the peak current 10-30 milliseconds after the voltage was stepped to −35 mV. […] For hCav2.1 currents were activated with a 200 millisecond step to 0 mV. hCav2.1 currents were measured from the leak-subtracted traces as the average current between 190 and 200 milliseconds after the step to 0 mV. […] Sodium currents were measured from leak subtracted traces as the peak transient inward current.
All drug effects were measured after a steady-state effect was achieved. […]

Molecules are shown by their SMILES.

One may read the EC50 as the concentration needed to bring the measured effect to its halfway point. On to `COc1cc(C(=O)N2CCC3(CC2)CN(c2ccccc2F)C3c2ccc(Cl)cc2)cc(OC)c1OC` (centres unmarked), for which the concentration for a half-maximal effect (EC50) on human GPR119 stood at 516 nM.
As to `COc1cc(C(=O)N2CCC3(CC2)CN(CC(C)C)C3c2ccccc2)cc(OC)c1OC` (centres unmarked), the concentration for a half-maximal effect (EC50) at human GPR119 stood at 882 nM.
Take `COc1cc(C(=O)N2CCC3(CC2)CN(Cc2ccc(F)cc2F)C3c2ccc(F)cc2)cc(OC)c1OC` (centres unmarked): the EC50 at human GPR119 stood at 1200 nM.
As to `COc1cc(C(=O)N2CCC3(CC2)CN(Cc2ccccc2Cl)C3c2ccccc2)cc(OC)c1OC` (centres unmarked), the concentration for a half-maximal effect (EC50) on human GPR119 is 1260 nM.
Still for that read-out and setting: as for `O=C(c1ccc2c(c1)OCCCO2)N1CCC2(CC1)CN(Cc1ccc(F)cc1F)C2c1ccc(F)cc1` (centres unmarked), the figure is 1300 nM; as for `COc1cc(C(=O)N2CCC3(CC2)CN(c2ccc(C)cc2)C3c2ccc(Cl)cc2)cc(OC)c1OC` (centres unmarked), 1340 nM.
What is called IC50 is the concentration that gives 50% inhibition. For the molecule `CC[C@H](C)[C@H](NC(=O)N1CCC2(CC1)CN(CCC(C)C)C2c1ccc(F)cc1)C(=O)OC` (some centres unmarked), the IC50 at human Cav3.2 [1] came out at 58 nM.
For `CC(C)CCN1CC2(CCN(C(=O)NC34CC5CC(CC(C5)C3)C4)CC2)C1c1ccc(F)cc1` (centres unmarked), the 50% inhibitory concentration (IC50) came out at 68 nM at human Cav3.2 [1] and 202 nM against human Cav3.2 [2].
On to `CC(C)CCN1CC2(CCN(C(=O)Nc3cc(F)cc(F)c3)CC2)C1c1ccc(F)cc1` (centres unmarked), for which, at human Cav3.2 [1], the IC50 was 70 nM.
On the same count and under the same terms, as for `CC[C@H](C)[C@H](NC(=O)N1CCC2(CC1)CN(C(C)C)C2c1ccc(-c2ccccc2)cc1)C(=O)OC` (some centres unmarked), the figure is 76 nM.
For `CC[C@H](C)[C@H](NC(=O)N1CCC2(CC1)CN(C(C)C)C2c1ccc(Br)cc1)C(=O)OC` (single isomer, unassigned), the IC50 at human Cav3.2 [1] turned out to be 24 nM; on human Cav3.2 [2], 82 nM.
For the molecule `CC(C)N1CC2(CCN(C(=O)Nc3cccc(Cl)c3)CC2)C1c1ccc(Cl)cc1` (single isomer, unassigned), the 50% inhibitory concentration (IC50) at human Cav3.2 [1] was 38 nM.
For `CC(C)N1CC2(CCN(C(=O)Nc3cc(F)cc(F)c3)CC2)C1c1ccc(Br)cc1` (single isomer, unassigned), at human Cav3.2 [1], the IC50 is 44 nM.
Consider `CC(C)N1CC2(CCN(C(=O)Nc3ccc(Cl)cc3)CC2)C1c1ccc(Cl)cc1` (single isomer, unassigned), for which the half-maximal inhibitory concentration (IC50) on human Cav3.2 [1] was determined as 49 nM.
Still for that read-out and setting: the value for `CC(C)N1CC2(CCN(C(=O)Nc3cccc(C#N)c3)CC2)C1c1ccc(Cl)cc1` (single isomer, unassigned) was 50 nM; that for `CC(C)N1CC2(CCN(C(=O)Nc3cccc(F)c3)CC2)C1c1ccc(Br)cc1` (single isomer, unassigned) was 58 nM; that for `CC(C)N1CC2(CCN(C(=O)Nc3cccc(F)c3)CC2)C1c1ccc(Cl)cc1` (single isomer, unassigned) was 64 nM.
In the case of `CC[C@H](C)[C@H](NC(=O)N1CCC2(CC1)CN(C(C)C)C2c1ccc(Cl)cc1)C(=O)OC(C)(C)C` (single isomer, unassigned), on human Cav3.2 [1], the IC50 stood at 85 nM.
With `O=C(Nc1cc(F)cc(F)c1)N1CCC2(CC1)CN(c1ccc(F)c(Cl)c1)C2c1ccccn1` (single isomer, unassigned), the half-maximal inhibitory concentration (IC50) at human Cav3.2 [1] was found to be 60 nM.
On the same count and under the same terms, the value for `CC(C)CCN1CC2(CCN(C(=O)Nc3cc(F)cc(F)c3)CC2)C1c1ccc(F)cc1` (single isomer, unassigned) was 76 nM; that for `CC[C@H](C)[C@H](NC(=O)N1CCC2(CC1)CN(CCC(C)C)C2c1ccc(F)cc1)C(=O)OC` (single isomer, unassigned) was 45 nM.
